Test results: US9212175B2, “Pharmaceutical hypocholesterolemic compositions” (Lipideon Biotechnology AG, priority 2009, dated 2015)

Columns and labels:
C56BL/6 mice = assay: Acute cholesterol absorption inhibition assay in mice; assay type: in vivo; details: [3H]-cholesterol counts in plasma 2 h after cholesterol, relative to vehicle control
Description: Accute Cholesterol Absorption Inhibition Assay in Mice
Compounds were added to a solution of 0.5% Methylcellulose (Sigma)/5% Solutol, BASF) or another suitable vehicle at a concentration of 0.1-1 mg/ml. C56BL/6 mice (n=3-6/group), aged 6-8 weeks were dosed orally with 0.1 ml of vehicle or 0.1 mL of vehicle containing the test compound (0.5-5 mg/kg) or ezetimibe (10 mg/kg) as positive control. Thirty minutes later all of the mice were dosed orally with 0.1 mL corn oil containing 2 μCi [^3H]-cholesterol per mouse. Two hours after administration of radiolabeled cholesterol, the animals were euthanized and blood collected. Cholesterol counts in plasma were determined, and percent inhibition of cholesterol absorption was calculated relative to the vehicle control.

[1] = Determination of absorption: unidirectional permeability assay (Cloe Screen, Cyprotex); assay type: in vitro ADME; details: human, Caco-2, apical side, cell monolayer, read-out: Papp in cm · s^−1
Description: It has further been shown that the compounds of the invention display the desired pharmacological activity by evaluation of their potency in vivo (in mice and hamsters). The bioavailability of the compounds of the present invention has been determined by unidirectional Caco2 Permeability measurement.
Determination of Absorption
The permeability of the compounds of the present invention was determined using the Cloe Screen® (unidirectional Cloe Screen […] permeability assay; Cyprotex) and is expressed by Papp (cm·s^−1). Caco-2 cells are widely used as an in vitro model for predicting human drug absorption. The Caco-2 cell line is derived from a human colorectal carcinoma, and when cultured, the cells spontaneously differentiate into monolayers of polarised enterocytes. The cells are typically seeded on Transwell™ plates and form a confluent monolayer over 20 days prior to the experiment. On day 20, the test compound is added to the apical side of the membrane and the transport of the compound across the monolayer is monitored over a 2 hour time period. The permeability coefficient (Papp) is calculated from the equation: Papp=(dQ/dt)/(C0xA), where (dQ/dt) is the rate of permeation of the drug across the cells, C0 is the donor compartment concentration at time zero and A is the area of the cell monolayer.

Syrian Golden Hamsters = assay: Long-term LDL lowering in Syrian Golden hamsters; assay type: in vivo; details: hamsters on high fat diet, dose 3 × 1 mg/kg/day, day 14, relative to vehicle control
Description: Long-Term LDL Lowering in Syrian Golden Hamsters
Groups of 6 male hamsters weighing 90±10 g are fed a high fat diet (g/100 g: corn oil, 5; coconut oil, 5; cholesterol, 0.2; standard chow, 89.8) for 7 days. Afterwards vehicle or test compounds (3-10 mg/kg bw/day) in a solution of 0.5% Methylcellulose, 5% Solutol or another suitable vehicle are administered at least three times daily for 14 consecutive days. Following an overnight fasting period, blood serum is obtained from the retro-orbital sinus of each animal on day 0 (7 days after initiating of the high fat diet) and on days 8 and 15 after dosing for 7 and 14 days. The serum is assayed for total cholesterol, LDL-cholesterol, HDL-cholesterol and triglycerides. The percent change of treated relative to the vehicle control group is determined.

Row | SMILES | Cholesterol Absorption Inhibition (%) (C56BL/6 mice; oral dose 1 mg/kg) | Papp A→B at 2 h [1] [×10⁻⁶ cm/s] | LDL reduction @ day 14 (%) (Syrian Golden Hamsters) | Cholesterol Absorption Inhibition (%) (C56BL/6 mice; oral dose 10 mg/kg (positive control))
1 | O=C(O)COC1(CCc2ccc([C@@H]3[C@@H](CC[C@H](O)c4ccc(F)cc4)C(=O)N3c3ccc(F)cc3)cc2)COC1 [Example 1, 2-(3-(4-((2S,3R)-1-(4-fluorophenyl)-3-((S)-3-(4-fluorophenyl)-3-hydroxypropyl)-4-oxoazetidin-2-yl)phenethyl)oxetan-3-yloxy)acetic acid] | 87 | 1.68 |  | 
2 | CC(C)[C@@H](NC(=O)COC1(CCc2ccc([C@@H]3[C@@H](CC[C@H](O)c4ccc(F)cc4)C(=O)N3c3ccc(F)cc3)cc2)COC1)C(=O)O [Example 39, (R)-2-(2-(3-(4-((2S,3R)-1-(4-fluorophenyl)-3-((S)-3-(4-fluorophenyl)-3-hydroxypropyl)-4-oxoazetidin-2-yl)phenethyl)oxetan-3-yloxy)acetamido)-3-methylbutanoic acid] | 82 | 0.92 | 74 | 
3 | O=C(COC1(CCc2ccc([C@@H]3[C@@H](CC[C@H](O)c4ccc(F)cc4)C(=O)N3c3ccc(F)cc3)cc2)COC1)NC1(C(=O)O)CCC1 [Example 35, 1-(2-(3-(4-((2S,3R)-1-(4-fluorophenyl)-3-((S)-3-(4-fluorophenyl)-3-hydroxypropyl)-4-oxoazetidin-2-yl)phenethyl)oxetan-3-yloxy)acetamido)cyclobutanecarboxylic acid] |  | 0.73 | 80 | 
4 | O=C(COC1(CCc2ccc([C@@H]3[C@@H](CC[C@H](O)c4ccc(F)cc4)C(=O)N3c3ccc(F)cc3)cc2)COC1)NCCS(=O)(=O)O [Example 28, 2-(2-(3-(4-((2S,3R)-1-(4-fluorophenyl)-3-((S)-3-(4-fluorophenyl)-3-hydroxypropyl)-4-oxoazetidin-2-yl)phenethyl)oxetan-3-yloxy)acetamido)ethanesulfonic acid] | 63 |  |  | 
5 | NC(=O)[C@H]1CCCN1C(=O)COC1(CCc2ccc([C@@H]3[C@@H](CC[C@H](O)c4ccc(F)cc4)C(=O)N3c3ccc(F)cc3)cc2)COC1 [Example 22, (R)-1-(2-(3-(4-((2S,3R)-1-(4-fluorophenyl)-3-((S)-3-(4-fluorophenyl)-3-hydroxypropyl)-4-oxoazetidin-2-yl)phenethyl)oxetan-3-yloxy)acetyl)pyrrolidine-2-carboxamide] | 80 |  |  | 
6 | O=C1[C@H](CC[C@H](O)c2ccc(F)cc2)[C@@H](c2ccc(O)cc2)N1c1ccc(F)cc1 [Ezetimibe, reference compound] |  | 46 |  | 87
7 | O=C(COC1(CCc2ccc([C@@H]3[C@@H](CC[C@H](O)c4ccc(F)cc4)C(=O)N3c3ccc(F)cc3)cc2)COC1)NC(CO)(CO)CO [Example 46, N-(1,3-dihydroxy-2-(hydroxymethyl)propan-2-yl)-2-(3-(4-((2S,3R)-1-(4-fluorophenyl)-3-((S)-3-(4-fluorophenyl)-3-hydroxypropyl)-4-oxoazetidin-2-yl)phenethyl)oxetan-3-yloxy)acetamide] |  | 1.09 | 67 | 
8 | O=C(COC1(CCc2ccc([C@@H]3[C@@H](CC[C@H](O)c4ccc(F)cc4)C(=O)N3c3ccc(F)cc3)cc2)COC1)N[C@H](CO)C(=O)O [Example 34, (R)-2-(2-(3-(4-((2S,3R)-1-(4-fluorophenyl)-3-((S)-3-(4-fluorophenyl)-3-hydroxypropyl)-4-oxoazetidin-2-yl)phenethyl)oxetan-3-yloxy)acetamido)-3-hydroxypropanoic acid] |  | 0.57 | 76 | 
9 | O=C(O)C1CCCCN1C(=O)COC1(CCc2ccc([C@@H]3[C@@H](CC[C@H](O)c4ccc(F)cc4)C(=O)N3c3ccc(F)cc3)cc2)COC1 (stereo partly drawn) [Example 23, 1-(2-(3-(4-((2S,3R)-1-(4-fluorophenyl)-3-((S)-3-(4-fluorophenyl)-3-hydroxypropyl)-4-oxoazetidin-2-yl)phenethyl)oxetan-3-yloxy)acetyl)piperidine-2-carboxylic acid] | 73 |  |  | 
10 | O=C(O)[C@H]1CCCN1C(=O)COC1(CCc2ccc([C@@H]3[C@@H](CC[C@H](O)c4ccc(F)cc4)C(=O)N3c3ccc(F)cc3)cc2)COC1 [Example 19, (R)-1-(2-(3-(4-((2S,3R)-1-(4-fluorophenyl)-3-((S)-3-(4-fluorophenyl)-3-hydroxypropyl)-4-oxoazetidin-2-yl)phenethyl)oxetan-3-yloxy)acetyl)pyrrolidine-2-carboxylic acid] | 83 | 0.14 |  | 
11 | O=C(O)[C@@H]1CCCN1C(=O)COC1(CCc2ccc([C@@H]3[C@@H](CC[C@H](O)c4ccc(F)cc4)C(=O)N3c3ccc(F)cc3)cc2)COC1 [Example 20, (S)-1-(2-(3-(4-((2S,3R)-1-(4-fluorophenyl)-3-((S)-3-(4-fluorophenyl)-3-hydroxypropyl)-4-oxoazetidin-2-yl)phenethyl)oxetan-3-yloxy)acetyl)pyrrolidine-2-carboxylic acid] | 42 |  |  | 
